The values below come from article PMC5464333, “The binding orientations of structurally-related ligands can differ; A cautionary note” (Neuropharmacology, 2017).

Each structure is given as a SMILES string.

The target in one test is T1, 5-HT3 receptor (Homo sapiens, UniProt P46098).
T1 construct: expressed in transfected cells; host or cells: HEK293, transient, pcDNA3.1
T1 sequence (P46098 24-478): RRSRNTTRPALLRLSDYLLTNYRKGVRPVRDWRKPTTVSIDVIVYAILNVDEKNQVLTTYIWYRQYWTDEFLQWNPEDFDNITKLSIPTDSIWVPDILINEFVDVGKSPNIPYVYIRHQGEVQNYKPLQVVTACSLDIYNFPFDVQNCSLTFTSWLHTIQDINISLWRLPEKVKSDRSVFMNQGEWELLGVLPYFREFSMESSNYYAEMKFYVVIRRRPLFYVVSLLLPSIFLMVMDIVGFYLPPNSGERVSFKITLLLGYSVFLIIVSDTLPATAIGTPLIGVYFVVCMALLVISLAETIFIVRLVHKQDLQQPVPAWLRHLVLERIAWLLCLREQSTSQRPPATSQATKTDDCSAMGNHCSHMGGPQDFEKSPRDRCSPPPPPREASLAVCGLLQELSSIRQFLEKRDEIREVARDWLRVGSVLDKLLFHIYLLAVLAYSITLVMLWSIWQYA
Nature of the test: Affinities from binding tropisetron, granisetron and their analogues at 5-HT3 receptors. The settings on record: for Ki / pKi Mean ± SEM: 5-HT3 receptor; for Fold change: Ki relative to parent scaffold. The method, then: (§1) Human 5-HT3A subunit cDNA (Accession: P46098, kindly provided by J. Peters, Dundee University, UK) was cloned into pcDNA3.1 for expression in HEK293 cells. […] Cells were transiently transfected with either of these cDNA constructs using polyethyleneimine (PEI: 25 kDa, linear, powder, Polysciences Inc., Eppelheim, Germany). 30 μl of PEI (1 mg ml^−1), 5 μg cDNA and 1 ml DMEM were incubated for 10 min at room temperature, added drop wise to a 90 mm plate of 70–80% conﬂuent HEK293 cells, and incubated for 2–3 days before use.
(§2) Transfected HEK 293 cells were scraped into 0.6 ml of ice-cold 10 mM HEPES buffer (pH 7.4) and frozen. After thawing, they were washed with HEPES buffer, homogenised by trituration through a 25 gauge (0.5 mm) needle, and 50 μg of cell suspension incubated in 0.5 ml HEPES buffer containing different concentrations of radioligand. […] Equilibrium reactions were incubated on ice for at least 1 h and terminated by vacuum filtration onto Whatman GF/B filters wetted with 0.3% polyethyleneimine, followed by two rapid washes with 2.5 ml ice cold buffer. Radioactivity was measured by scintillation in Ultima Gold XR (Perkin Elmer, Waltham, MA) using a Tri-Carb 2100 TR (PerkinElmer) scintillation counter. Final counts were monitored to ensure that binding never exceeded 10% of the added concentrations of radioligands.

Test [1] addresses α7 nACh receptor (UniProt P22770+P23979, M226I/T225I). The method, then: as §1, §2
All data were analysed using GraphPad Prism v5. Individual saturation binding experiments were fitted to the equation below and the fitted values averaged to yield mean ± sem of n independent experiments: y=[…] where Bmax is maximum binding at equilibrium, Kd is the equilibrium dissociation constant and [L] is the free concentration of radioligand. Affinities were compared using 1-way ANOVA and a Dunnett's Post-Test.

Test [2] relates to Untransfected HEK293 cells. Nature of the test: Radioligand binding at untransfected HEK293 cells. The arrangement: species or system human. The method, then:
Human embryonic kidney (HEK) 293 cells were grown on 90 mm round tissue culture plates as monolayers in DMEM/F12 (Gibco, Life Technologies, CA, USA) supplemented with 10% fetal bovine serum (FBS; Sigma Aldrich) at 37 °C in a moist atmosphere containing 5% CO2.

Test [3] deals with α7 nACh receptor. The settings on record: α7 nACh receptor; ref Macor et al., 2001; cited from earlier work.

Chain of α7 nACh receptor (UniProt P22770+P23979, M226I/T225I) (P22770+P23979 fused P22770:T225I/P22770:M226I): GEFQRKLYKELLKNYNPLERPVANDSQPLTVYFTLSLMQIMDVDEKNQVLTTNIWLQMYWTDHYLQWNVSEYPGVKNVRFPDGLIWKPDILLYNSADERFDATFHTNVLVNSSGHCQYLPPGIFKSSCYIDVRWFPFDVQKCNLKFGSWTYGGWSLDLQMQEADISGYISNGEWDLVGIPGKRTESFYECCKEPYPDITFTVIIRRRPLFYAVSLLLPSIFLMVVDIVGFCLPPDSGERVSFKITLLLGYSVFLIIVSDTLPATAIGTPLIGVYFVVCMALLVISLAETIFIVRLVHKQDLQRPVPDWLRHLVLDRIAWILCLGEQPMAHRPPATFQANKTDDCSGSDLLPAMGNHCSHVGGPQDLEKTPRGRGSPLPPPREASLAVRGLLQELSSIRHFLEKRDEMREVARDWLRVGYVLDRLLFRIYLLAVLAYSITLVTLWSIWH

As to `COc1ccc2[nH]cc(C(=O)O[C@H]3C[C@H]4CC[C@@H](C3)N4C)c2c1` [Compound 1, (1R,3r,5S)-8-methyl-8-azabicyclo[3.2.1]octan-3-yl 5-methoxy-1H-indole-3-carboxylate], on 5-HT3 receptor, the affinity, expressed as Ki, was 95.5 nM; the “pKi Mean ± SEM” value worked out at 7.02 ± 0.03; the Fold change worked out at 133 fold.
As to `Clc1ccc(C2CC3CCC2N3)cn1` (centres unmarked) [[^3H]epibatidine], the Kd (commonly the equilibrium constant for the complex coming apart) at α7 nACh receptor [1] turned out to be 8.81 ± 0.13 nM.
With `O=C(O[C@H]1C[C@H]2CC[C@@H](C1)N2Cc1ccccc1)c1c[nH]c2ccccc12` [Compound 4, (1R,3r,5S)-8-benzyl-8-azabicyclo[3.2.1]octan-3-yl 1H-indole-3-carboxylate], on 5-HT3 receptor, the affinity corresponds to a Ki of 1440 nM, the “pKi Mean ± SEM” value is 5.84 ± 0.20 and the Fold change is 2007 fold.
For the molecule `CN1C2CCCC1CC(NC(=O)c1nn(C)c3ccccc13)C2` (centres unmarked) [[^3H]granisetron], the saturable binding result in test [2] was “no saturable binding”.
For the molecule `COc1cccc2c(C(=O)N[C@H]3C[C@H]4CCC[C@@H](C3)N4C)nn(C)c12` [Compound 7, 7-methoxy-1-methyl-N-((1R,3r,5S)-9-methyl-9-azabicyclo[3.3.1]nonan-3-yl)-1H-indazole-3-carboxamide], at 5-HT3 receptor, the inhibitory constant (Ki) (in general, the dissociation constant of the complex between target and ligand, obtained from inhibition or displacement) is 120 nM; the “pKi Mean ± SEM” value was determined as 6.92 ± 0.24; the Fold change was 255 fold.
In the case of `CN1C2CCC1CC(NC(=O)c1nn(C)c3ccccc13)C2` (centres unmarked) [LY-278,584], the binding result in the test on α7 nACh receptor [3] is on record as “cannot be detected”.
Turning to `COc1cccc2c(C(=O)O[C@H]3C[C@H]4CC[C@@H](C3)N4C)c[nH]c12` [Compound 3, (1R,3r,5S)-8-methyl-8-azabicyclo[3.2.1]octan-3-yl 7-methoxy-1H-indole-3-carboxylate], on 5-HT3 receptor, the Ki turned out to be 30.2 nM, the “pKi Mean ± SEM” value is 7.52 ± 0.12 and the Fold change turned out to be 42 fold.
Turning to `[3H]C([3H])([3H])N1C2CCC1CC(OC(=O)c1c[nH]c3ccccc13)C2` (centres unmarked) [[^3H]tropisetron], the saturation binding result at α7 nACh receptor [1] is given as “could not be detected”. Further, the saturable binding entry in test [2] was “no saturable binding”.
With `COc1ccc2c(C(=O)O[C@H]3C[C@H]4CC[C@@H](C3)N4C)c[nH]c2c1` [Compound 2, (1R,3r,5S)-8-methyl-8-azabicyclo[3.2.1]octan-3-yl 6-methoxy-1H-indole-3-carboxylate], on 5-HT3 receptor, the affinity corresponds to a Ki of 182 nM, the “pKi Mean ± SEM” value was 6.74 ± 0.04 and the Fold change amounted to 253 fold.
